Reference: PMC4552636, “Pharmacokinetics, Tissue Distribution, and Anti-Lipogenic/Adipogenic Effects of Allyl-Isothiocyanate Metabolites” (PLoS ONE, 2015)

Experiments:
[1] = rat, in vivo, po
Protocol: (§5) Male Sprague-Dawley rats with an average weight of approximately 250 g were purchased from Orient Bio Inc. (Seoul, South Korea) and acclimatized to the laboratory conditions (12:12 h light-dark cycle, temperature of 24°C, and humidity of 55%) for 1 week. Animals were provided the American Institute of Nutrition-93 (AIN-93) diet and water ad libitum during acclimation. On the dosing day, rats were fasted for 6 h and then administered AITC (25 mg/kg of body weight) as a suspension (1 mL) in polyethylene glycol using an oral zonde needle. After a single-dose oral administration of AITC, rats were sacrificed under anesthesia (80 mg/kg ketamine + 8 mg/kg xylazine) at different time points after dosing. Blood samples were collected from the abdominal aorta in heparinized syringes. Samples were immediately centrifuged at 3,000 × g for 10 min and the resulting plasma samples were kept frozen at -80°C until analysis. The liver, heart, spleen, kidney, and lung were rapidly collected from each animal at different time points, individually wrapped in aluminum foil, snap-frozen in liquid nitrogen, and stored frozen at -80°C until use.
(§6) Dissected tissue was thawed, rinsed with ice-cold saline, blotted dry, and weighed. Each tissue sample (100 mg) was homogenized in 100 μL phosphate-buffered saline (PBS) using homogenizer (MP Fastprep instrument, MP Biomedical, Solon, OH, USA). The homogenates were transferred into clean tubes and mixed with 700 μL of methanol by vortexing for 5 min. Homogenates were centrifuged at 15,700 × g for 15 min at 4°C, and the supernatants were collected and evaporated to dryness at room temperature under a stream of nitrogen gas. The residue was diluted with 100 μL 70% methanol.
(§7) HPLC analysis was performed using a Jasco HPLC system equipped with a Jasco UV-2089 plus quaternary gradient pump, a Jasco MD-2010 plus multiple-wave-length detector, and Borwin chromatography software, version 1.5 (Jasco Inc., Easton, MD, USA). Separation was achieved using an XTerra RP18 column (4.6 × 250mm, 5 μM, Waters, Milford, MA, USA). […]

[2] = Tissue distribution of AITC metabolites after oral AITC (HPLC); conditions: rat liver, kidney, spleen, heart, lung; 0.5-8 h after oral AITC
Protocol: as §5, §6, §7

[3] = tested on: PPAR-γ, C/EBPα, and FAS; assay: Western blotting of adipogenesis proteins in 3T3-L1 cells; type: cell-based
Protocol: (§1) 3T3-L1 pre-adipocyte cells were purchased from the ATCC (Manassas, VA, USA). Cells were maintained in DMEM supplemented with 10% calf serum (CS), 100 U/mL penicillin and 100 μg/mL streptomycin at 37°C in a 5% CO2 incubator. The cells were seeded onto a 6-well plate at a density of 4 × 10^5 cells per well, and cell differentiation was induced. In brief, beginning at 2 days post-confluence (day 0), cells were incubated for 2 days in DMEM containing 0.5 mM 3-isobutyl-1-methylxanthine (IBMX), 1 μM dexamethasone, 1 μg/mL of insulin, and 10% fetal bovine serum (FBS). After induction, the medium was replaced with DMEM containing 10% FBS and 1 μg/mL of insulin, and the cells were incubated for 2 more days, after which the cells were maintained in DMEM containing 10% FBS until they reached maturity. From days 0 to 2, the cells were exposed to the AITC metabolites.
(§2) 3T3-L1 adipocytes were scraped into a lysis buffer containing 40 mM HEPES (pH 7.4), 120 mM NaCl, 1 mM EDTA, 50 mM NaF, 1.5 mM Na3VO4, 10 mM β–glycerophosphate, and 1% Triton X-100, supplemented with EDTA-free phosphatase and a protease inhibitor cocktail (#78441; Thermo Scientific, Waltham, MA, USA). Next, the cells were lysed by sonication twice for 15 sec on ice using a sonicator (Misonix, Farmingdale, NY, USA). […]

[4] = set-up: method as in PMID 3961819; conditions: cellular medium; cited from earlier work
[5] = Urine concentration and pharmacokinetics of AITC metabolites after oral AITC (HPLC); type: in vivo; conditions: rat urine; for Detection in urine samples: HPLC
Protocol: (§3) Non-compartmental (mode-independent) nutrikinetic parameters were derived using PK Solutions software version 2.0 (Summit Research Services, Montrose, CO, USA). The maximum plasma concentration (Cmax), time to maximum plasma concentration (Tmax), and the elimination half-life (t1/2) were estimated from the plasma concentration-time curve. The area under the curve (AUC) for the plasma concentration over time was calculated using the trapezoidal rule.
In addition to our evaluations of plasma levels, we also determined the concentration of AITC metabolites in urine using HPLC. […] NAC-AITC was mostly excreted within 8 h (Fig 3C).

[6] = tested on: 3T3-L1 preadipocytes; assay: MDI-induced adipocyte differentiation of 3T3-L1 preadipocytes, Oil Red O staining; type: cell-based; conditions: treated days 0 to 2, stained after 8 days
Protocol: as §1
(§4) Oil Red O staining was performed on day 8. Prior to quantification, the cells were fixed in 10% neutral formalin for 1 h at room temperature, washed with PBS, and stained for 1 h with 0.5% Oil Red O in 60% isopropanol. After staining, the cells were washed with distilled water and observed under a fluorescence microscope. […] The optical density was measured at a wavelength of 490 nm using microplate reader (Tecan Infinite 200 PRO, Männedorf, Switzerland).

[7] = tested on: mTORC1; assay: mTORC1 activity (S6K1 and 4EBP1 phosphorylation) during 3T3-L1 adipocyte differentiation, western blot; type: cell-based
Protocol: as §1, §2

[8] = tested on: Hepa 1–6 cells; assay: Oleic acid-induced lipid accumulation in hepatocytes, Oil Red O; type: cell-based, mouse; conditions: hepatocytes (Hepa 1–6), 100 μM oleic acid, 24h
Protocol: HepG2 (human hepatoma cell line) and Hepa 1–6 (mouse hepatoma cell line) cells were obtained from ATCC (Manassas, VA, USA) and grown in high glucose DMEM supplemented with 10% FBS, 100 U/mL penicillin, and 100 μg/mL streptomycin. For examination of lipid accumulation in hepatocytes, the cells were treated with AITC metabolites in presence of 100 μM oleic acid for 24h.
as §4
Fig 6 Inhibitory effects of GSH-AITC and NAC-AITC on oleic acid-induced lipid accumulation. […] The intracellular triglyceride levels were indexed by quantifying the Oil Red O extracted from the cells by spectroscopy performed at an […] of 490 nm (B). The SCD1, FAS, and AMPK levels in cell lysates were detected by western blot analysis. To compare and quantify levels of proteins, the density of each band was measured using ImageJ software with β–actin as an internal reference (C). […]

[9] = Plasma pharmacokinetics of AITC metabolites after oral administration of AITC (HPLC); type: in vivo; conditions: male, Sprague-Dawley, rat plasma, metabolite after oral AITC 25 mg/kg, n = 5; for Cmax: read-out: Cmax (maximum plasma concentration); for half-life: read-out: T1/2 (elimination half-life) (converted); for AUC(0-t): unit printed in text b47 only, read-out: AUC (0-8h)
Protocol: Methanol (700 μL) was added to 300 μL of serum and the mixture was mixed by vortexing for 5 min. […] The internal standards (synthesized metabolites) were added to the plasma samples for validation.
as §3
A validated analytical method was employed to study the pharmacokinetic profiles of AITC metabolites after oral administration of 25 mg/kg AITC dose to rats. The mean plasma concentration-time curves of the AITC metabolites and the corresponding pharmacokinetic parameters are shown in Fig 2B and 2C . The pharmacokinetic analysis was performed with PK solution 2.0 software, using a non-compartmental model for data analysis. After oral administration of AITC, GSH-AITC and NAC-AITC were detected in the plasma. The Tmax values for GSH-AITC and NAC-AITC were similar at 0.5h. […] The areas under the curve of the concentration-time profile (AUC0-8h) of GSH-AITC and NAC-AITC were 1.3 and 12.33 μg·h/mL, respectively.

[10] = male, Sprague-Dawley, 25 mg/kg, n = 5

Structure (SMILES)	Detection of parent molecule in plasma and tissues [1]	Tissue deposition (by tissue weight) [2]	Levels of PPAR-γ, C/EBPα, and FAS [3]	Fraction converted to free AITC [4]	Detection in urine samples [5]	Differentiation of 3T3-L1 preadipocytes (Oil Red O) [6]	S6K1 phosphorylation on Thr389 [7]	Oleic acid-induced lipid accumulation [8]	Tmax [9]	Cmax [9]	half-life [9]	AUC(0-t) [9]	Cmax [5, 10]	Tmax [5, 10]	AUC(0-t) ([5]; male, Sprague-Dawley, 25 mg/kg, n = 5, read-out: AUC (0-8h) in urine)	half-life ([5]; male, Sprague-Dawley, 25 mg/kg, n = 5, read-out: T1/2 in urine (converted))	Time within which mostly excreted in urine [5]
C=CCN=C=S [AITC, Allyl-isothiocyanate]	not detected																
C=CCNC(=S)SC[C@H](NC(=O)CC[C@H](N)C(=O)O)C(=O)NCC(=O)O [GSH-AITC, S-(N-allylthiocarbamoyl)-L-glutathione]		observed in the liver, followed by the kidney, spleen, heart, and lung	reduced	9–15%	not detected	inhibited differentiation of preadipocytes	reduced	suppressed	0.5 h	1470 ng/mL	0.92 h	1300 ng·h/mL					
C=CCNC(=S)SC[C@H](NC(C)=O)C(=O)O [NAC-AITC, N-acetyl-S-(N-allylthiocarbamoyl)- l-cysteine]		observed in the kidney	reduced		successfully quantified	inhibited differentiation of preadipocytes	reduced	suppressed	0.5 h	14000 ng/mL	2.65 h	12300 ng·h/mL	2260 ng/mL	2.66 h	8110 ng·h/mL	1.44 h	≤ 8 h
